#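 Test compounds were applied to cells in 96-well plates for 48 hours at 5 doses. TGI: concentration producing complete growth inhibition.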
# Test system: CCRF-CEM leukemia
# Assay: NCI tumour cell line growth inhibition, 48 h
row,SMILES,TGI [µM]
1,CCOC(=O)C1C(c2ccccc2)=C(c2ccccc2)C(c2ccccc2)=C1c1ccccc1,> 100
2,Cc1c(NC(=O)/C(=N/NC(=S)N=N)C2C(=O)CC(C)(C)CC2=O)c(O)c2ccccc2c1O,21.1
3,COC(=O)CCC1=NOC(CC2CC(CCC(=O)OC)=NO2)C1 (stereo unspecified),> 100
4,CC(C)=CCCC(C)[C@H]1CC(O)C2(C)C3=CCC4C(C)(C)[C@@H](O)CC[C@]4(C)C3=CC[C@]12C (stereo partly specified),25.8
5,COc1ccc(C(c2ccc(C(C)C)cc(OC)c2=O)c2ccc(C(C)C)cc(OC)c2=O)cc1,38.5

# Test system: K-562 leukemia
# Assay: NCI tumour cell line growth inhibition, 48 h
row,SMILES,TGI [µM]
1,CCOC(=O)C1C(c2ccccc2)=C(c2ccccc2)C(c2ccccc2)=C1c1ccccc1,> 100
2,Cc1c(NC(=O)/C(=N/NC(=S)N=N)C2C(=O)CC(C)(C)CC2=O)c(O)c2ccccc2c1O,62.8
3,COC(=O)CCC1=NOC(CC2CC(CCC(=O)OC)=NO2)C1 (stereo unspecified),> 100
4,CC(C)=CCCC(C)[C@H]1CC(O)C2(C)C3=CCC4C(C)(C)[C@@H](O)CC[C@]4(C)C3=CC[C@]12C (stereo partly specified),26.6
5,COc1ccc(C(c2ccc(C(C)C)cc(OC)c2=O)c2ccc(C(C)C)cc(OC)c2=O)cc1,35.9

# Test system: NCI-H226 lung
# Assay: NCI tumour cell line growth inhibition, 48 h
row,SMILES,TGI [µM]
1,CCOC(=O)C1C(c2ccccc2)=C(c2ccccc2)C(c2ccccc2)=C1c1ccccc1,> 60.1
2,Cc1c(NC(=O)/C(=N/NC(=S)N=N)C2C(=O)CC(C)(C)CC2=O)c(O)c2ccccc2c1O,27.7
3,COC(=O)CCC1=NOC(CC2CC(CCC(=O)OC)=NO2)C1 (stereo unspecified),> 100
4,CC(C)=CCCC(C)[C@H]1CC(O)C2(C)C3=CCC4C(C)(C)[C@@H](O)CC[C@]4(C)C3=CC[C@]12C (stereo partly specified),15.1
5,COc1ccc(C(c2ccc(C(C)C)cc(OC)c2=O)c2ccc(C(C)C)cc(OC)c2=O)cc1,32.3

# Test system: TK-10 renal
# Assay: NCI tumour cell line growth inhibition, 48 h
row,SMILES,TGI [µM]
1,CCOC(=O)C1C(c2ccccc2)=C(c2ccccc2)C(c2ccccc2)=C1c1ccccc1,57.4
2,Cc1c(NC(=O)/C(=N/NC(=S)N=N)C2C(=O)CC(C)(C)CC2=O)c(O)c2ccccc2c1O,35.6
3,COC(=O)CCC1=NOC(CC2CC(CCC(=O)OC)=NO2)C1 (stereo unspecified),> 100
4,CC(C)=CCCC(C)[C@H]1CC(O)C2(C)C3=CCC4C(C)(C)[C@@H](O)CC[C@]4(C)C3=CC[C@]12C (stereo partly specified),50.1
5,COc1ccc(C(c2ccc(C(C)C)cc(OC)c2=O)c2ccc(C(C)C)cc(OC)c2=O)cc1,34.2

# Test system: HCT-116 colon
# Assay: NCI tumour cell line growth inhibition, 48 h
row,SMILES,TGI [µM]
1,CCOC(=O)C1C(c2ccccc2)=C(c2ccccc2)C(c2ccccc2)=C1c1ccccc1,> 76.6
2,Cc1c(NC(=O)/C(=N/NC(=S)N=N)C2C(=O)CC(C)(C)CC2=O)c(O)c2ccccc2c1O,13.7
3,COC(=O)CCC1=NOC(CC2CC(CCC(=O)OC)=NO2)C1 (stereo unspecified),> 100
4,CC(C)=CCCC(C)[C@H]1CC(O)C2(C)C3=CCC4C(C)(C)[C@@H](O)CC[C@]4(C)C3=CC[C@]12C (stereo partly specified),6.22
5,COc1ccc(C(c2ccc(C(C)C)cc(OC)c2=O)c2ccc(C(C)C)cc(OC)c2=O)cc1,23.1

# Test system: HCC-2998 colon
# Assay: NCI tumour cell line growth inhibition, 48 h
row,SMILES,TGI [µM]
1,CCOC(=O)C1C(c2ccccc2)=C(c2ccccc2)C(c2ccccc2)=C1c1ccccc1,> 100
2,Cc1c(NC(=O)/C(=N/NC(=S)N=N)C2C(=O)CC(C)(C)CC2=O)c(O)c2ccccc2c1O,23.3
3,COC(=O)CCC1=NOC(CC2CC(CCC(=O)OC)=NO2)C1 (stereo unspecified),> 100

# Test system: UACC-257 melanoma
# Assay: NCI tumour cell line growth inhibition, 48 h
row,SMILES,TGI [µM]
1,CCOC(=O)C1C(c2ccccc2)=C(c2ccccc2)C(c2ccccc2)=C1c1ccccc1,> 100
2,Cc1c(NC(=O)/C(=N/NC(=S)N=N)C2C(=O)CC(C)(C)CC2=O)c(O)c2ccccc2c1O,14
3,COC(=O)CCC1=NOC(CC2CC(CCC(=O)OC)=NO2)C1 (stereo unspecified),> 100
4,CC(C)=CCCC(C)[C@H]1CC(O)C2(C)C3=CCC4C(C)(C)[C@@H](O)CC[C@]4(C)C3=CC[C@]12C (stereo partly specified),> 100
5,COc1ccc(C(c2ccc(C(C)C)cc(OC)c2=O)c2ccc(C(C)C)cc(OC)c2=O)cc1,29

# Test system: COLO 205 colon
# Assay: NCI tumour cell line growth inhibition, 48 h
row,SMILES,TGI [µM]
1,CCOC(=O)C1C(c2ccccc2)=C(c2ccccc2)C(c2ccccc2)=C1c1ccccc1,> 100
2,Cc1c(NC(=O)/C(=N/NC(=S)N=N)C2C(=O)CC(C)(C)CC2=O)c(O)c2ccccc2c1O,25.5
3,COC(=O)CCC1=NOC(CC2CC(CCC(=O)OC)=NO2)C1 (stereo unspecified),> 100
4,CC(C)=CCCC(C)[C@H]1CC(O)C2(C)C3=CCC4C(C)(C)[C@@H](O)CC[C@]4(C)C3=CC[C@]12C (stereo partly specified),20.7
5,COc1ccc(C(c2ccc(C(C)C)cc(OC)c2=O)c2ccc(C(C)C)cc(OC)c2=O)cc1,31.1

# Test system: SF-295 CNS
# Assay: NCI tumour cell line growth inhibition, 48 h
row,SMILES,TGI [µM]
1,CCOC(=O)C1C(c2ccccc2)=C(c2ccccc2)C(c2ccccc2)=C1c1ccccc1,69.8
2,Cc1c(NC(=O)/C(=N/NC(=S)N=N)C2C(=O)CC(C)(C)CC2=O)c(O)c2ccccc2c1O,27.6
3,COC(=O)CCC1=NOC(CC2CC(CCC(=O)OC)=NO2)C1 (stereo unspecified),> 100
4,CC(C)=CCCC(C)[C@H]1CC(O)C2(C)C3=CCC4C(C)(C)[C@@H](O)CC[C@]4(C)C3=CC[C@]12C (stereo partly specified),5.91
5,COc1ccc(C(c2ccc(C(C)C)cc(OC)c2=O)c2ccc(C(C)C)cc(OC)c2=O)cc1,29.7

# Test system: HOP-92 NSCLC
# Assay: NCI tumour cell line growth inhibition, 48 h
row,SMILES,TGI [µM]
1,CCOC(=O)C1C(c2ccccc2)=C(c2ccccc2)C(c2ccccc2)=C1c1ccccc1,50.7
2,COC(=O)CCC1=NOC(CC2CC(CCC(=O)OC)=NO2)C1 (stereo unspecified),> 100
3,CC(C)=CCCC(C)[C@H]1CC(O)C2(C)C3=CCC4C(C)(C)[C@@H](O)CC[C@]4(C)C3=CC[C@]12C (stereo partly specified),9.53
4,COc1ccc(C(c2ccc(C(C)C)cc(OC)c2=O)c2ccc(C(C)C)cc(OC)c2=O)cc1,27.1

# Test system: LXFL 529 NSCLC
# Assay: NCI tumour cell line growth inhibition, 48 h
row,SMILES,TGI [µM]
1,CCOC(=O)C1C(c2ccccc2)=C(c2ccccc2)C(c2ccccc2)=C1c1ccccc1,> 100
2,Cc1c(NC(=O)/C(=N/NC(=S)N=N)C2C(=O)CC(C)(C)CC2=O)c(O)c2ccccc2c1O,23.7
3,COC(=O)CCC1=NOC(CC2CC(CCC(=O)OC)=NO2)C1 (stereo unspecified),> 100
4,CC(C)=CCCC(C)[C@H]1CC(O)C2(C)C3=CCC4C(C)(C)[C@@H](O)CC[C@]4(C)C3=CC[C@]12C (stereo partly specified),5.09
5,COc1ccc(C(c2ccc(C(C)C)cc(OC)c2=O)c2ccc(C(C)C)cc(OC)c2=O)cc1,28.1

# Test system: U251 CNS
# Assay: NCI tumour cell line growth inhibition, 48 h
row,SMILES,TGI [µM]
1,CCOC(=O)C1C(c2ccccc2)=C(c2ccccc2)C(c2ccccc2)=C1c1ccccc1,55.7
2,Cc1c(NC(=O)/C(=N/NC(=S)N=N)C2C(=O)CC(C)(C)CC2=O)c(O)c2ccccc2c1O,14
3,COC(=O)CCC1=NOC(CC2CC(CCC(=O)OC)=NO2)C1 (stereo unspecified),> 100
4,CC(C)=CCCC(C)[C@H]1CC(O)C2(C)C3=CCC4C(C)(C)[C@@H](O)CC[C@]4(C)C3=CC[C@]12C (stereo partly specified),6.54
5,COc1ccc(C(c2ccc(C(C)C)cc(OC)c2=O)c2ccc(C(C)C)cc(OC)c2=O)cc1,26.6

# Test system: RXF-631 renal
# Assay: NCI tumour cell line growth inhibition, 48 h
row,SMILES,TGI [µM]
1,CCOC(=O)C1C(c2ccccc2)=C(c2ccccc2)C(c2ccccc2)=C1c1ccccc1,> 100
2,Cc1c(NC(=O)/C(=N/NC(=S)N=N)C2C(=O)CC(C)(C)CC2=O)c(O)c2ccccc2c1O,31.7
3,COC(=O)CCC1=NOC(CC2CC(CCC(=O)OC)=NO2)C1 (stereo unspecified),> 100
4,CC(C)=CCCC(C)[C@H]1CC(O)C2(C)C3=CCC4C(C)(C)[C@@H](O)CC[C@]4(C)C3=CC[C@]12C (stereo partly specified),34
5,COc1ccc(C(c2ccc(C(C)C)cc(OC)c2=O)c2ccc(C(C)C)cc(OC)c2=O)cc1,34.8

# Test system: SNB-75 CNS
# Assay: NCI tumour cell line growth inhibition, 48 h
row,SMILES,TGI [µM]
1,CCOC(=O)C1C(c2ccccc2)=C(c2ccccc2)C(c2ccccc2)=C1c1ccccc1,32.1
2,Cc1c(NC(=O)/C(=N/NC(=S)N=N)C2C(=O)CC(C)(C)CC2=O)c(O)c2ccccc2c1O,45.6
3,COC(=O)CCC1=NOC(CC2CC(CCC(=O)OC)=NO2)C1 (stereo unspecified),> 100
4,CC(C)=CCCC(C)[C@H]1CC(O)C2(C)C3=CCC4C(C)(C)[C@@H](O)CC[C@]4(C)C3=CC[C@]12C (stereo partly specified),21.3
5,COc1ccc(C(c2ccc(C(C)C)cc(OC)c2=O)c2ccc(C(C)C)cc(OC)c2=O)cc1,34

# Test system: SNB-19 CNS
# Assay: NCI tumour cell line growth inhibition, 48 h
row,SMILES,TGI [µM]
1,CCOC(=O)C1C(c2ccccc2)=C(c2ccccc2)C(c2ccccc2)=C1c1ccccc1,40.3
2,Cc1c(NC(=O)/C(=N/NC(=S)N=N)C2C(=O)CC(C)(C)CC2=O)c(O)c2ccccc2c1O,26.5
3,COC(=O)CCC1=NOC(CC2CC(CCC(=O)OC)=NO2)C1 (stereo unspecified),> 100
4,CC(C)=CCCC(C)[C@H]1CC(O)C2(C)C3=CCC4C(C)(C)[C@@H](O)CC[C@]4(C)C3=CC[C@]12C (stereo partly specified),30.2

# — PubChem BioAssay (NCI)
